Data reported in ChEMBL document CHEMBL3808380, “Discovery of a novel covalent non-β-lactam inhibitor of the metallo-β-lactamase NDM-1” (Bioorg Med Chem, 2016).
The source made the active and inactive calls. No cut-off for these calls is given here.

How the values were obtained:
Klebsiella pneumoniae [1] = assay: Binding affinity to Klebsiella pneumoniae 6xHis-tagged metallo-beta-lactamase NDM-1 K224A mutant expressed in Escherichia coli BL21 (DE3)pLysS at 1.5 mM after 3 hrs by ESI-MS analysis
[2] = biological target: T1, Metallo-beta-lactamase type 2 (Klebsiella pneumoniae, UniProt C7C422); assay: Time-dependent inhibition of wild type Klebsiella pneumoniae 6xHis-tagged metallo-beta-lactamase NDM-1 expressed in Escherichia coli BL21 (DE3)pLysS
[3] = Inhibition of beta-lactamase VIM-2 (unknown origin)
[4] = biological target: Metallo-beta-lactamase type 2 (Klebsiella pneumoniae) (UniProt C7C422); conditions: 200 uM
Klebsiella pneumoniae [5] = assay: Inhibition of Klebsiella pneumoniae 6xHis-tagged metallo-beta-lactamase NDM-1 K224A mutant expressed in Escherichia coli BL21 (DE3)pLysS assessed as hydrolysis of imipenem up to 750 uM after 20 mins
[6] = biological target: Metallo-beta-lactamase type 2 (Klebsiella pneumoniae) (UniProt C7C422); conditions: 2 uM
[7] = biological target: T1, Metallo-beta-lactamase type 2; assay: Time-dependent inhibition of wild type Klebsiella pneumoniae 6xHis-tagged metallo-beta-lactamase NDM-1 expressed in Escherichia coli BL21 (DE3)pLysS assessed as inhibition constant for initial non-covalant complex

Sequence of Metallo-beta-lactamase type 2 (Klebsiella pneumoniae) (C7C422 whole entry): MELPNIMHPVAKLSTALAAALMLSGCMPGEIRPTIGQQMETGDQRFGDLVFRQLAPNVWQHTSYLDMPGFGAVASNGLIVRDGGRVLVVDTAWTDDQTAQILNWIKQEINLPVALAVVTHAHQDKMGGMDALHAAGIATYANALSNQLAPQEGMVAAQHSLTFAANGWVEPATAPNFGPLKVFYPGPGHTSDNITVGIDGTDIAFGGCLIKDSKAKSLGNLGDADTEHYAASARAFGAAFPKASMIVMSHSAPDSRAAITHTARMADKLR
T1 sequence (C7C422 whole entry): as above

O=Cc1coc2ccccc2c1=O
Activity (Klebsiella pneumoniae [1]): inactive | Ki [2]: 0.58 µM | inhibition [3]: inactive | inhibition [4]: tde | inhibition (Klebsiella pneumoniae [5]): inactive | inhibition [6]: tde | Ki [7]: 76 µM
